Patent US20250120987A1, “METHOD FOR TREATING CANCER USING HUMAN MIT[…] ENZYME 2 INHIBITOR” (priority 2023, published 2025)

Tests used:
H1299 cells [1] = assay: Cell invasion assay (Transwell/Matrigel); assay type: cell-based, human; settings: 150 μM, 24 hours
Experimental: (§1) […]. A culture medium containing 10% fetal bovine serum was subsequently added to the lower chambers. […] The vehicle groups, which were formed by cells to which no EA or MDSA was added, were provided to enable the calculation of the amount of the cells in each EA or MDSA-treated group in relation to the amount of the cells in the corresponding vehicle group at the end of the assay so that changes in the relative amounts of cells can be observed with ease.

MCF-7 cells [2] = assay: Cell invasion assay (Transwell/Matrigel); assay type: cell-based, human; settings: 150 μM, 24 hours
Experimental: as §1

H1299 cells [3] = assay: ATP and ROS content of treated cells; assay type: cell-based, human; settings: 150 μM, 48 hours
Experimental: H1299 cells (3×10^5 cells) were cultured in separate culture media each containing 20 mM L-malate. […]. Also, a ROS assay kit (#cat.MAK143, Sigma-Aldrich, St. Louis, MO, USA) was used to analyze the ROS contents of the cells, and the results are shown in FIG. 8. […]

H1299 cells [4] = assay: Seahorse XF cell mito stress test (oxygen consumption rate); assay type: cell-based, human; settings: 75 and 150 μM, 3 hours
Experimental: (§9) Finally, a Seahorse XFe24 analyzer was used to perform a Seahorse XF cell mito stress test on the cells to obtain the oxygen consumption rates (OCR) of the cells, and the test results are shown in FIG. 9 to FIG. 18. The control groups were formed by cells to which no EA or MDSA was added.

H1299 cells [5] = assay: Pyruvate and NADPH content of treated cells; assay type: cell-based, human; settings: 25 μM, 48 hours, 20 mM L-malate
Experimental: (§2) H1299 cells (3×10^5 cells) were cultured for 24 hours in separate culture media each containing 20 mM L-malate, with the culture environment being at 37° C. and containing 5% carbon dioxide. […]. After that, the cultured cells in each group were collected and were centrifuged in 100 μL of phosphate buffer, and the supernatants were collected. Once the proteins in the supernatants were removed, a pyruvate colorimetric/fluorometric assay kit and a PicoProbe™ NADPH quantification fluorometric assay kit were used to analyze the pyruvate content and NADPH content of the cells respectively (Ex/Em: at 535 nm and 587 nm). […]

MCF-7 cells [6] = assay: Seahorse XF cell mito stress test (oxygen consumption rate); assay type: cell-based, human
Experimental: as §9

MCF-7 cells [7] = assay: Pyruvate and NADPH content of treated cells; assay type: cell-based, human; settings: 25 μM, 48 hours
Experimental: as §2
In addition, MCF-7 cells (6×10^5 cells) were cultured in the same way as the H1299 cells and had their pyruvate content and NADPH content analyzed.

human ME2 = molecular target: T1, human ME2 (Homo sapiens, UniProt P23368); assay: ME2 inhibition test; assay type: biochemical; settings: for IC50: Table 1, 40 mM L-malate, 2 mM NAD+, 10 mM MgCl2, read-out: IC50 with respect to ME2; for inhibiting the activity of ME2 (in words): summary of Table 1
T1 construct: made in house; host or cells: Escherichia coli BL21
T1 sequence (P23368 19-584): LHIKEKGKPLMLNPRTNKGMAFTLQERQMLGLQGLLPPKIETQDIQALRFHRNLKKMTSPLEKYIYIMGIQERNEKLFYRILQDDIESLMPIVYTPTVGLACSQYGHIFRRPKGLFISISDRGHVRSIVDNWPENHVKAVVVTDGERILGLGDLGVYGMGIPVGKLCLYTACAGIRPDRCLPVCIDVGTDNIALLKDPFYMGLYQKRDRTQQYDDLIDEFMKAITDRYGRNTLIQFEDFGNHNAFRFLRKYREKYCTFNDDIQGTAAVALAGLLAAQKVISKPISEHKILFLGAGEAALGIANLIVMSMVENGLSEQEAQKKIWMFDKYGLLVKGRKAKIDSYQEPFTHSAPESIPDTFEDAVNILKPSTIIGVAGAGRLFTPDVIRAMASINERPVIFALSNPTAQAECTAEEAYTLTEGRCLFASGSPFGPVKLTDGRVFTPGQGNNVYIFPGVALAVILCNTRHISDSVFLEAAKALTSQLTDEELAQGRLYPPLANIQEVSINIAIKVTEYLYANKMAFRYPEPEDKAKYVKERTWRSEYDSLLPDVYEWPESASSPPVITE

MV4-11 cells [8] = assay: Oxygen consumption rate of AML cells; assay type: cell-based, human; settings: 150 μM
HL-60 cells [9] = assay: Cell survival assay; assay type: cell-based, human
Experimental: (§3) In the following assay, therefore, the NazEA dosage of 150 μM was used.

MV4-11 cells [10] = assay: Cell survival assay; assay type: cell-based, human
Experimental: as §3

THP-1 cells [11] = assay: Cell survival assay; assay type: cell-based, human
Experimental: as §3

THP-1 cells [12] = assay: Oxygen consumption rate of AML cells; assay type: cell-based, human; settings: 150 μM
HL-60 cells [13] = assay: Mass spectrometric analysis of metabolic intermediates; assay type: cell-based, human; settings: 150 μM, UPLC-MS
Experimental: The Na2EA-treated HL-60 cells (1×10^7 cells) and the HL-60 cells untreated with NazEA (1×10^7 cells) in example 10 were taken, added into 1 mL of 80% methanol, and centrifuged at 4° C. and 12,000×g for 10 minutes. After the supernatants were evaporated with nitrogen gas, an analysis was performed using a Waters ultra-high performance liquid chromatograph coupled with Waters Xevo TQ-S MS (Waters Corp. Milford, MA, USA).

MV4-11 cells [14] = assay: Animal test, ASID mice transplanted with MV4-11 cells; assay type: in vivo; settings: 4 mg/kg, intravenous, day 21
Experimental: (§4) A plurality of 8-week-old ASID mice (or mice with advanced severe immunodeficiency, or more specifically NOD.Cg-Prkde^scidIl2rg^tm1Wjl/YckNarl mice) were randomly divided into 6 groups. Each group of mice was intravenously injected with one of a plurality of differently treated AML cell variants at a frequency of 5 days per week for 4 weeks. The AML cell variants injected into the 6 groups of mice are as follows: • Group 1-1: THP-1 cells • Group 2-1: THP-1 cells with EA (at a dosage of 4 mg/kg) • Group 3-1: THP-1 cells with Na2EA (at a dosage of 4 mg/kg) • Group 1-2: MV4-11 cells • Group 2-2: MV4-11 cells with EA (at a dosage of 4 mg/kg) • Group 3-2: MV4-11 cells with Na2EA (at a dosage of 4 mg/kg)
(§5) On the 21st day of the test, peripheral blood was collected from the submandibular vein of the mice, and bone marrow was collected as well. The blood and bone marrow were stained with specific markers (CD33 and CD45) and then reacted with a fluorescent antibody, before the CD33+ or CD45^+-stained cells were quantified with a flow cytometer.

THP-1 cells [15] = assay: Animal test, ASID mice transplanted with THP-1 cells; assay type: in vivo; settings: 4 mg/kg, intravenous, day 21
Experimental: as §4, §5

HL-60 cells [16] = assay: Oxygen consumption rate of AML cells; assay type: cell-based, human; settings: 150 μM
HL-60 cells [17] = assay: Metabolite contents of AML cells (NADPH, ROS, ATP, pyruvate, NADH, glutamic acid); assay type: cell-based, human; settings: 150 μM
Experimental: (§6) HL-60 cells, THP-1 cells, and MV4-11 cells were each divided into two groups, namely a vehicle group to be cultured in an RPMI culture medium and a group to be cultured in an RPMI culture medium containing 150 μM Na2EA. After culturing for 24 hours, the culture media were renewed. After culturing for another 48 hours, a commercially available apoptosis detection kit (Annexin V Apoptosis Detection Kit) and flow cytometer were used to analyze the apoptosis rates of the cells, and the results are shown in FIG. 34. In addition, a commercially available cell viability assay kit (CellTiter-Glo® 2.0 Cell Viability Assay Kit), a NAD/NADH-Glo™ assay kit, a commercially available intracellular ROS assay kit (#cat.MAK143, Sigma-Aldrich, St. Louis, MO, USA), and a commercially available pyruvate colorimetric/fluorometric assay kit were used to analyze the NADPH, ROS, and ATP contents of each group of cells, and the results are shown in FIG. 35 to FIG. 37.
(§7) Furthermore, the cells in each group were stained with ATP-Red Live Cell Dye (BioTracker™ ATP-Red Live Cell Dye) and were observed and quantified under a fluorescence microscope, with the quantification results shown in FIG. 38. The oxygen consumption rate of each group of cells was also determined in the same way as in example 6, with the introduction of different stress testing conditions, and the results are shown in FIG. 39 to FIG. 44.
(§8) Besides, the […], pyruvate, NAD^+, NADH, and glutamic acid contents of each group of cells were analyzed with a NAD/NADH-Glo™ assay kit, a commercially available pyruvate colorimetric/fluorometric assay kit, and a commercially available Glutamine/Glutamate-Glo™ assay kit (#Cat. J8021; Promega, Madison, WI, USA) in the same way as in example 9, and the results are shown in FIG. 45 to FIG. 48.

MV4-11 cells [18] = assay: as above; assay type: cell-based, human; settings: 150 μM
Experimental: as §6, §7, §8

THP-1 cells [19] = assay: as above; assay type: cell-based, human; settings: 150 μM
Experimental: as §6, §7, §8

HL-60 cells [20] = assay: Apoptosis rate (Annexin V, flow cytometer); assay type: cell-based, human; settings: 150 μM
Experimental: as §6

MV4-11 cells [21] = assay: Apoptosis rate (Annexin V, flow cytometer); assay type: cell-based, human; settings: 150 μM
Experimental: as §6

THP-1 cells [22] = assay: Apoptosis rate (Annexin V, flow cytometer); assay type: cell-based, human; settings: 150 μM
Experimental: as §6

MCF-7 cells [23] = settings: 150 μM, 48 hours
Experimental: (§10) A 24-well plate was inoculated with H1299 cells (1.5×10^5 cells) and MCF-7 cells (3.0×10^5 cells), and the cells were cultured in a 37° C. and 5% carbon dioxide environment for 24 hours in order for a confluent monolayer of cells to be formed. After that, the culture medium was removed, and the cells were washed with a phosphate buffer. […] Cell migration was observed under an automated microscope, and a quantitative analysis of cells was performed at the same time.

H1299 cells [24] = settings: 150 μM, 48 hours
Experimental: as §10

O=C(O)c1cc(Cc2ccc(O)c(C(=O)O)c2)ccc1O [MDSA, 5,5′-methylenedisalicylic acid]
cell invasion (H1299 cells [1]): inhibit | cell invasion (MCF-7 cells [2]): cannot inhibit | ATP content (H1299 cells [3]): lower | ROS content (H1299 cells [3]): increase | ATP generation (mitochondrial electron transport chain) (H1299 cells [4]): lowered | NADPH content (H1299 cells [5]): reduce | pyruvate content (H1299 cells [5]): reduce | spare respiratory capacity (MCF-7 cells [6]): remained the same | NADPH content (MCF-7 cells [7]): not reduced significantly | pyruvate content (MCF-7 cells [7]): not reduced significantly

O=C(O)c1ccc2cc(C(=O)O)ccc2c1 [2,6-dicarboxy naphthalene]
IC50 (human ME2): 353 µM

O=C(O)c1cccc(C(=O)c2ccccc2)c1 [3-benzoyl-benzoic acid]
IC50 (human ME2): 652 µM

O=C(O)c1cc2cccc(O)c2cc1O [3,5-dihydroxy-2-naphthoic acid]
IC50 (human ME2): 12.4 µM | inhibiting the activity of ME2 (in words) (human ME2): relatively effective

O=C(O)c1ccc2ccccc2c1O [1-hydroxy-2-naphthoic acid]
IC50 (human ME2): 74.7 µM | inhibiting the activity of ME2 (in words) (human ME2): relatively effective

O=C(O)c1cc2ccccc2c(Cc2c([O-])c(C(=O)O)cc3ccccc23)c1[O-].[Na+].[Na+] [Na2EA, disodium embonate]
mitochondrial proton leak (MV4-11 cells [8]): lowered | oxygen consumption rate (MV4-11 cells [8]): lowered | yield of ATP by the mitochondrial electron transport chains (MV4-11 cells [8]): lowered | IC50 (HL-60 cells [9]): ~120 µM | IC50 (MV4-11 cells [10]): ~120 µM | IC50 (THP-1 cells [11]): ~120 µM | mitochondrial proton leak (THP-1 cells [12]): lowered | oxygen consumption rate (THP-1 cells [12]): lowered | yield of ATP by the mitochondrial electron transport chains (THP-1 cells [12]): lowered | fructose-6-phosphate (F-6-P) content (HL-60 cells [13]): suppress | glucose-1-phosphate (G-1-P) content (HL-60 cells [13]): suppress | glucose-6-phosphate (G-6-P) content (HL-60 cells [13]): suppress | glutamic acid content (HL-60 cells [13]): increasing | glutamine content (HL-60 cells [13]): increasing | AML cells in mice (CD33+ / CD45+ stained cells in peripheral blood and bone marrow) (MV4-11 cells [14]): reduce | effectiveness in reducing AML cells compared with EA (MV4-11 cells [14]): more effective in reducing AML cells than EA | AML cells in mice (CD33+ / CD45+ stained cells in peripheral blood and bone marrow) (THP-1 cells [15]): reduce | effectiveness in reducing AML cells compared with EA (THP-1 cells [15]): more effective in reducing AML cells than EA | mitochondrial proton leak (HL-60 cells [16]): lowered | oxygen consumption rate (HL-60 cells [16]): lowered | yield of ATP by the mitochondrial electron transport chains (HL-60 cells [16]): lowered | ATP content (HL-60 cells [17]): greatly reduced | NAD+/NADH ratio (HL-60 cells [17]): increased | NADH content (HL-60 cells [17]): reduced | NADPH content (HL-60 cells [17]): greatly reduced | ROS steady state (HL-60 cells [17]): destroyed | glutamic acid content (HL-60 cells [17]): increased | pyruvate content (HL-60 cells [17]): reduced | ATP content (MV4-11 cells [18]): greatly reduced | NAD+/NADH ratio (MV4-11 cells [18]): increased | NADH content (MV4-11 cells [18]): reduced | NADPH content (MV4-11 cells [18]): greatly reduced | ROS steady state (MV4-11 cells [18]): destroyed | glutamic acid content (MV4-11 cells [18]): increased | pyruvate content (MV4-11 cells [18]): reduced | ATP content (THP-1 cells [19]): greatly reduced | NAD+/NADH ratio (THP-1 cells [19]): increased | NADH content (THP-1 cells [19]): reduced | NADPH content (THP-1 cells [19]): greatly reduced | ROS steady state (THP-1 cells [19]): destroyed | glutamic acid content (THP-1 cells [19]): increased | pyruvate content (THP-1 cells [19]): reduced | apoptosis rate (HL-60 cells [20]): 60-75% | apoptosis rate (MV4-11 cells [21]): 60-75% | apoptosis rate (THP-1 cells [22]): 60-75%

O=C(O)c1cc2ccccc2c(Cc2c(O)c(C(=O)O)cc3ccccc23)c1O [EA, 4,4′-methylene-bis(3-hydroxy-2-naphthoic acid)]
cell migration (MCF-7 cells [23]): cannot inhibit | cell invasion (H1299 cells [1]): inhibit | cell invasion (MCF-7 cells [2]): cannot inhibit | cell migration (H1299 cells [24]): inhibit | ATP content (H1299 cells [3]): lower | ROS content (H1299 cells [3]): increase | ATP generation (mitochondrial electron transport chain) (H1299 cells [4]): reduced | basal respiration rate (H1299 cells [4]): reduced | maximum respiration rate (H1299 cells [4]): reduced | spare respiratory capacity (H1299 cells [4]): reduced | NADPH content (H1299 cells [5]): reduce | pyruvate content (H1299 cells [5]): reduce | AML cells in mice (CD33+ / CD45+ stained cells in peripheral blood and bone marrow) (MV4-11 cells [14]): reduce | ATP generation (MCF-7 cells [6]): remained the same | basal respiration rate (MCF-7 cells [6]): remained the same | maximum respiration rate (MCF-7 cells [6]): remained the same | spare respiratory capacity (MCF-7 cells [6]): remained the same | AML cells in mice (CD33+ / CD45+ stained cells in peripheral blood and bone marrow) (THP-1 cells [15]): reduce | NADPH content (MCF-7 cells [7]): not reduced significantly | pyruvate content (MCF-7 cells [7]): not reduced significantly

O=C(O)c1ccccc1O [Salicylic acid]
IC50 (human ME2): 801 µM

O=C(O)c1cc2cc(Br)ccc2cc1O [7-bromo-3-hydroxy-2-naphthoic acid]
IC50 (human ME2): 308 µM

O=C(O)c1cc2cc(O)ccc2cc1O [3,7-dihydroxy-2-naphthoic acid]
IC50 (human ME2): 37.6 µM

O=C(O)c1cc2ccccc2cc1O [3-hydroxy-2-naphthoic acid]
IC50 (human ME2): 105 µM | inhibiting the activity of ME2 (in words) (human ME2): relatively effective
